# Results published in patent publication US10947260B2, “Phosphinolactone derivatives and pharmaceutical uses thereof” (INSTITUT NATIONAL DE LA SANTE ET DE LA RECHERCHE MEDICALE …, priority 2016, dated 2021).
# Tests used:
# [1] = system: mice treated with scopolamine; assay: Spontaneous alternation in Y-maze, scopolamine amnesia model; assay type: in vivo; settings: IP; scopolamine model
# Procedure: FIG. 5: Anti-amnesic effect of compound 3b in mice treated with scopolamine: (a, b) spontaneous alternation in Y-maze, and (c, d) passive avoidance. The mice were given compound 3b (0.03-1.5 mg/kg IP) 10 min before scopolamine (0.5 mg/kg SC), 20 min before the Y-maze session or passive avoidance training. Y-maze test: (a) spontaneous alternation and (b) total number of arm entries; retention of passive avoidance: (c) step-through latency and (d) escape latency. ANOVA: F(6.94)=5.32, p<0.0001 at (a); F(6.94)=10.6, p<0.0001 at (b); H=31.4, p<0.0001 at (c); H=24.3, p<0.001 at (d); n=12-19 per group. *p<0.05, **p<0.01, ***p<0.001 compared with group (Sc.Aβ+V); #p<0.05, ##p<0.01, ###p<0.001 compared with group (Aβ25-35+V); Dunnett test at (a, b) and Dunn at (c, d).
# FIG. 6: Analysis of the antagonism of anti-amnesic effects of compound 3b in mice treated with scopolamine: (a, c, e) spontaneous alternation in Y-maze, and (b, d, f) step-through latency at recall session of passive avoidance. The mice were treated with methyllycaconitine (MLA, 1 or 3 mg/kg IP), dihydro-ß-erythroidine (DHßE, 1 or 3 mg/kg IP), or NE100 (1 mg/kg IP), simultaneously with compound 3b (0.1 mg/kg IP) 10 min before scopolamine (S, 0.5 mg/kg SC), 20 min before behavioural session. ANOVA: F(5.87)=7.19, p<0.0001 at (a); H=31.3, p<0.0001 at (b); F(5.82)=5.82, p<0.0001 at (c); H=28.8, p<0.0001 at (d); F(4.77)=10.0, p<0.0001 at (e); H=30.5, p<0.0001 at (f); n=12-17 per group. *p<0.05, **p<0.01, ***p<0.001 compared with group (Sc.Aβ+V); #p<0.05, ##p<0.01, ###p<0.001 compared with group (Aβ25-35+V); Dunnett test at (a, b) and Dunn at (c, d).
# The animals were tested for spontaneous alternation performance in a Y-maze, an index of spatial working memory. The Y-maze was in grey PVC. Each arm was 40 cm long, 13 cm high, 3 cm wide at the base and 10 cm wide in the upper part, and converging at an equal angle. Each mouse was placed at one end of an arm and was able to move freely through the maze during an 8-min session. The series of arm entries, including any returns in the same arm were visually analysed. Alternation is defined as being consecutive entries in three different arms. The maximum number of alternations is therefore the total number of arm entries less two, and alternation percentage is calculated as (actual alternations/maximum possible alternations)×100. […]
# Finally, a first mechanistic analysis of the pharmacological effect in vivo of compound 3b was carried out. With the objective of confirming that the compound, neuroprotective against amyloid toxicity, could also be anti-amnesic in a pharmacological amnesia model, we first determined its effectiveness against the amnesic effects of scopolamine. […]
# mice = assay: Forced swim test; assay type: in vivo; settings: 5 mg/kg
# Procedure: FIG. 13: Assays of compound 3b as positive modulator of the sigma-1 protein. […] Male Swiss mice aged 7 weeks (n=10-12 per group) were forced to swim for 15 min on Day 1 and 6 min on Day 2. They were given NE-100 (10 mg/kg ip), 10 min before compound 3b (10 mg/kg ip) and 20 min before the session of Day 2. Immobility was measured over the last 5 minutes of the session. The vehicle solution was distilled water. F(3.42)=4.45, p<0.01; **p<0.01 vs. group V/V, ##p<0.01 vs. group V/3b, Dunnet test. […] Wild-type mice (Wt, n=14-15) and S1R KO mice (n=9-10) were forced to swim 15 min on Day 1 and 6 min on Day 2. They were given compound 3b (10 mg/kg ip) 20 min before the session on Day 2. Immobility was measured during the last 5 minutes of the session. The vehicle solution was distilled water. F(3.49)=6.64, p<0.001; **p<0.01 vs. group Wt/V, Dunnett test. […] Male Swiss mice aged 7 weeks (n=8-23 per group) were forced to swim for 15 min on Day 1 and 6 min on Day 2. They were given igmesine (10, 30 mg/kg ip) and/or compound 3b (10 mg/kg ip) 20 min before the session on Day 2. NE-100 (10 mg/kg ip) was injected 10 min before igmesine and compound 3b. Immobility was measured during the last 5 minutes of the session. The vehicle solution was distilled water. F(6.90)=5.59, p<0.0001; ***p<0.001 vs. group V, ##p<0.01 vs. group V/Igmesine (10)+3B (5), Dunnett test.
# [2] = system: mice treated with Aβ25-35
# Procedure: The hippocampi were homogenized in 50 mM Tris-150 mM NaCl solution, pH 7.5, and sonicated for 20 s. After centrifugation at 16 100 g for 15 min at 4° C., the supernatants were used for ELISA assays in accordance with the manufacturer's instructions (ThermoScientific, Courtaboeuf, France; USCN, Wuhan, China). For each assay, absorbance was read at 450 nm and the concentration of each sample calculated in comparison with a standard curve. The results are expressed in ng or pg per mg of tissue and expressed as % of the control group.
# On Day 9, the animals were sacrificed, the brains removed, the hippocampi and cortex dissected and frozen.
# [3] = 1.5 mg/kg IP, control ScAβ animals
compound,measurement,setting,value
"CC1(C)COP(=O)(c2cccc(Cl)c2)C(C)(C)N1 (racemic) [Compound 3b, (±)-2-(3-Chlorophenyl)-2-oxo-3,3,5,5-tetramethyl-[1,4,2]-oxazaphosphinane]",effective dose (anti-amnesic),[1],0.1 mg/kg
same,activity in forced swim test,mice,not active
same,Bax in control animals ScAβ,[2]; [3],tends to increase Bax
same,Bax/Bcl2 ratio in control animals ScAβ,[2]; [3],tends to increase
same,Bcl2 levels,[2]; 0.3-1.5 mg/kg IP,no effect
